Source: patent publication US20250281610A1, “P2RY2 ACTIVITY MODULATORS” (Deutsches Krebsforschungszentrum Stiftung des öffentlichen …, priority 2022, published 2025)

Assays:
SW480 cells = assay: Viability of SW480 cells in co-culture with CEA-specific CAR-T cells (CellTiter-Blue); format: cell-based, human; conditions: 10 μM AR-C, 48 hours (FIG. 20)
Procedure: FIG. 20. Effects of P2RY2 agonist and P2RY2 antagonist on cancer cell viability in T cell-cancer cell co-cultures. T cells transduced with a CEA-specific CAR (CAR-T) were co-cultured with genetically edited SW480 cells for 48 hours in the absence or presence of 40 μM ATP, 20 μM ATPγS, 10 μM Diquafosol, 5 μM Denufosol and 10 μM AR-C 118925XX (AR-C). Control cells: SW480 cells transduced with non-targeting sgRNA and Cas9 (gNT); P2RY2 deficient cells: SW480 cells transduced with P2RY2-targeting sgRNA and Cas9 (gP2RY2-3, gP2RY2-4); B7-H3 (CD276) deficient cells: SW480 cells transduced with B7-H3-targeting sgRNA and Cas9 (gCD276-1); P2RY2 and B7-H3 double deficient cells: SW480 cells transduced with P2RY2-targeting sgRNA, B7-H3-targeting sgRNA, and Cas9 (gCD276-1 gP2RY2-3 DKO, gCD276-1 gP2RY2-4 DKO); P2RY2 overexpression cells: SW480 cells transduced with the open reading frame of P2RY2 (P2RY2-OE); B7-H3 overexpression cells: SW480 cells transduced with the open reading frame of CD276 (CD276-OE). […] Normalized cell viability of the SW480 cells was determined by the CellTiter-Blue® Cell Viability (Promega) assay after co-culture with CEA CAR-T cells. The end-point cell viability was normalized to SW480 cells, as measured using the CellTiter-Blue® Cell Viability (Promega) assay, in cultures without T cells. […]

[1] = tested on: CEA-specific CAR transduced T cells co-cultured with SW480 cells; assay: T cell activation in co-culture of CEA-specific CAR-T cells with SW480 cells; format: cell-based, human; conditions: 10 μM AR-C, 24 hours, CD3+CD8+ or CD3+CD4+ population (FIG. 19)
Procedure: FIG. 19. Effects of P2RY2 agonist and P2RY2 antagonist on T cell activity in T cell-cancer cell co-cultures. T cells transduced with a CEA-specific CAR (CAR-T) were co-cultured with genetically edited SW480 cells for 24 hours in the absence or presence of 40 μM ATP, 200 μM ATPγS, 10 μM Diquafosol, 5 μM Denufosol and 10 μM AR-C 118925XX (AR-C). Control cells: SW480 cells transduced with non-targeting sgRNA and Cas9 (gNT); P2RY2 deficient cells: SW480 cells transduced with P2RY2-targeting sgRNA and Cas9 (gP2RY2-3, gP2RY2-4); B7-H3 (CD276) deficient cells: SW480 cells transduced with B7-H3-targeting sgRNA and Cas9 (gCD276-1); P2RY2 and B7-H3 double deficient cells: SW480 cells transduced with P2RY2-targeting sgRNA, B7-H3-targeting sgRNA, and Cas9 (gCD276-1 gP2RY2-3 DKO, gCD276-1 gP2RY2-4 DKO); P2RY2 overexpression cells: SW480 cells transduced with the open reading frame of P2RY2 (P2RY2-OE); B7-H3 overexpression cells: SW480 cells transduced with the open reading frame of CD276 (CD276-OE). Transduced cancer cells were selected by antibiotics according to antibiotic resistance genes carried by the lentiviral constructs. Flow cytometry analysis of expression of CD25 and CD69 and production of IFNγ within the CD3+CD8+ or CD3+CD4+ cell population is shown (values indicate the percentages of positive cells).
MART-1 specific T cells were generated as described (Mezzadra et al., Nature 549, 106-110 (2017); Jorritsma et al., Blood 110 (10): 3564-3572. (2007)). To generate CD33-specific chimeric antigen receptor (CAR) T cells and CEA-specific CAR-T cells, a CD33Hul95-CD28Z CAR (described in WO 2019/178382) cassette and MFE-23 (described in US20050147614A1)-CD28Z CAR were separately cloned into retroviral vectors, and the resulting virus was used to transduce T cells as described (Mezzadra et al., Nature 549, 106-110 (2017); Jorritsma et al., Blood 110 (10): 3564-3572. (2007)).
The open reading frames of transcripts of P2RY2 (ENST00000393597.7) or CD276 (ENST00000318443.10), were ordered as a codon optimized gBlock Gene Fragment (Integrated DNA Technologies or Twist Bioscience) and cloned into a lentiviral vector containing a blasticidin selection cassette. Constructs were verified by Sanger sequencing.
MART1-specific CD8+ T cells and MART1 epitope-expressing cancer cells were mixed at a ratio of 1:16 to 1:1. CD33 CAR-T cells and CD33 expressing THP-1 cells were mixed at a ratio of 1:16 to 1:4. CEA CAR-T cells and CEA expressing SW480 cells were mixed at a ratio of 1:1. Next, cells were centrifugated at 1,600 g for 3 min and incubated at 37° C. and 5% CO2 for 12-72 hours. T cell activation was assessed by surface staining with anti-CD137-BV421 (4-1BB, Biolegend), anti-CD137-PE/Cy7 (4-1BB, Biolegend), anti-CD69-APC/Fire™ 750 (FN50, Biolegend), anti-CD25-AF700 (BC96, Biolegend), anti-CD25-APC (BC96, Biolegend) antibodies and intracellular staining with anti-IL-2-PE/Cy7 (MQ1-17H12, Biolegend), anti-IFN-7-BV421 (4S.B3, Biolegend), anti-TNF-α-BV785 (MAb11, Biolegend), anti-TNF-α-APC (MAb11, Biolegend) antibodies, followed by flow cytometry analysis. For intracellular staining, brefeldin A (Biolegend) was added to the cell culture medium 4 h before cells were harvested. The viability of cancer cells that grow in suspension including THP-1 cells was assessed by flow cytometry-based absolute cell counting using AccuCount beads (Spherotech). For adherent cancer cells including BxPC3, MIA PaCa-2, MDA-MB-231 and MCF7, the cell viability was quantified using CellTiter-Blue Cell Viability Assay (Promega).

Cc1ccc2c(c1)C=Cc1cc(C)ccc1C2c1cn(Cc2ccc(C(=O)Nc3nn[nH]n3)o2)c(=O)[nH]c1=S [AR-C 118925XX]
tumor cell viability (SW480 cells): reduced
expression of T cell activation marker CD25 [1]: increased
expression of T cell activation marker CD69 [1]: increased
expression of T cell activation marker IFN-7 [1]: increased
